Measured values published in ChEMBL document CHEMBL1201862, “PubChem BioAssay data set” (2004).
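These data come from cells grown in 96-well plates and exposed to compound for 48 hours at five concentrations. GI50: concentration for 50% inhibition of growth.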 The source made the active and inactive calls. Rule as the data show it: active = GI50 up to about 1.1 µM and inactive = higher.

What was measured:
Assay in all cases: NCI tumour cell line growth inhibition, 48 h
SNB-75 = tested on: SNB-75
UACC-257 = tested on: UACC-257
M14 = tested on: M14
SNB-19 = tested on: SNB-19
HCT-116 = tested on: HCT-116
MOLT-4 = tested on: MOLT-4
COLO 205 = tested on: COLO 205
KM12 = tested on: KM12
HOP-62 = tested on: HOP-62
SK-MEL-5 = tested on: SK-MEL-5
K562 = tested on: K562
IGROV-1 = tested on: IGROV-1
LOX IMVI = tested on: LOX IMVI
SK-MEL-2 = tested on: SK-MEL-2
SF-539 = tested on: SF-539
NCI-H23 = tested on: NCI-H23
NCI-H226 = tested on: NCI-H226
OVCAR-5 = tested on: OVCAR-5

Measured: GI50

CCCCCCCCCC(=O)OCC1OC(n2cc(F)c(=O)[nH]c2=O)C(NC(=O)OCc2ccccc2)C(OC(=O)CCCCCCCCC)C1O (centres undefined)
inactive: SNB-75 16.3 µM | UACC-257 61.8 µM | M14 52.2 µM | SNB-19 33.6 µM | HCT-116 14.9 µM | MOLT-4 18.7 µM | COLO 205 32.8 µM | KM12 31 µM | HOP-62 > 100 µM | SK-MEL-5 20.3 µM | K562 30.1 µM | IGROV-1 > 100 µM | LOX IMVI 16.6 µM | SK-MEL-2 31 µM | SF-539 40.8 µM | NCI-H23 25.5 µM

CCCCc1c2c([n+]([O-])c3c1CCCC3)CCCC2
inactive: UACC-257 40.6 µM | M14 > 10 µM | SNB-19 44.4 µM | HCT-116 65.2 µM | MOLT-4 6.59 µM | COLO 205 > 100 µM | KM12 > 100 µM | HOP-62 > 100 µM | SK-MEL-5 28.4 µM | K562 3.56 µM | IGROV-1 43.1 µM | LOX IMVI > 100 µM | NCI-H226 > 100 µM | SF-539 > 100 µM | NCI-H23 > 100 µM

Cc1nc2ccccc2c(=O)n1-c1ccccc1I
inactive: SNB-75 46.2 µM | UACC-257 > 100 µM | M14 > 100 µM | SNB-19 > 100 µM | HCT-116 > 100 µM | MOLT-4 > 100 µM | COLO 205 > 100 µM | OVCAR-5 > 100 µM | HOP-62 > 100 µM | SK-MEL-5 > 100 µM | K562 96.4 µM | IGROV-1 > 100 µM | SK-MEL-2 > 100 µM | NCI-H226 > 100 µM | NCI-H23 > 100 µM

Cc1cc2nc3c(C(OC4OC(CO)C(O)C(O)C4O)C(O)CO)nn(-c4ccc(F)cc4)c3nc2cc1C (centres undefined)
inactive: SNB-75 80.7 µM | UACC-257 > 100 µM | M14 > 100 µM | SNB-19 > 100 µM | HCT-116 > 100 µM | MOLT-4 > 100 µM | KM12 > 100 µM | OVCAR-5 > 100 µM | HOP-62 > 100 µM | K562 > 100 µM | LOX IMVI > 100 µM | SF-539 > 100 µM | NCI-H23 > 100 µM

Cc1n[nH]c(=S)n(C)c1=S
inactive: SNB-75 > 100 µM | M14 > 100 µM | SNB-19 > 100 µM | HCT-116 > 100 µM | MOLT-4 > 100 µM | COLO 205 > 100 µM | OVCAR-5 > 100 µM | HOP-62 > 100 µM | K562 > 100 µM | IGROV-1 > 100 µM | LOX IMVI > 100 µM | SK-MEL-2 > 100 µM | NCI-H226 > 100 µM | SF-539 > 100 µM | NCI-H23 > 100 µM

CC1=C(c2nc3ccccc3s2)C(=O)OC1(C)C
inactive: SNB-75 86.5 µM | UACC-257 > 100 µM | M14 > 100 µM | SNB-19 > 100 µM | HCT-116 > 100 µM | MOLT-4 > 100 µM | COLO 205 > 100 µM | KM12 > 100 µM | OVCAR-5 > 100 µM | HOP-62 > 100 µM | SK-MEL-5 > 100 µM | K562 > 100 µM | LOX IMVI > 100 µM | SK-MEL-2 > 100 µM | NCI-H226 > 100 µM | SF-539 > 100 µM | NCI-H23 > 100 µM

O=[N+]([O-])c1ccc2nc(/C(=N/Nc3ccccc3)C(O)c3ccc(C(O)/C(=N\Nc4ccccc4)c4nc5ccc([N+](=O)[O-])cc5nc4O)cc3)cnc2c1 (centres undefined)
inactive: UACC-257 > 100 µM | M14 40.3 µM | SNB-19 > 100 µM | HCT-116 55.5 µM | MOLT-4 75.3 µM | COLO 205 > 100 µM | KM12 37.1 µM | OVCAR-5 31.4 µM | HOP-62 28.5 µM | SK-MEL-5 24.8 µM | K562 13.6 µM | IGROV-1 > 100 µM | SK-MEL-2 43.8 µM | SF-539 55.1 µM | NCI-H23 > 100 µM

CC1(C)C(=O)C(=Cc2ccco2)C1=O
inactive: SNB-75 > 100 µM | UACC-257 > 100 µM | M14 > 100 µM | HCT-116 > 100 µM | MOLT-4 > 100 µM | COLO 205 > 100 µM | KM12 > 100 µM | OVCAR-5 > 100 µM | SK-MEL-5 > 100 µM | K562 > 100 µM | IGROV-1 > 100 µM | LOX IMVI > 100 µM | SK-MEL-2 > 100 µM | NCI-H226 > 100 µM | SF-539 > 100 µM | NCI-H23 > 100 µM

NC1=NN(c2ccccc2)C(=O)C1/C(=N\NC(=O)c1cc2ccccc2cc1O)C(=O)Nc1ccc(Cl)cc1 (centres undefined)
inactive: SNB-75 4.72 µM | UACC-257 28.6 µM | M14 20.7 µM | SNB-19 37.8 µM | HCT-116 11.9 µM | MOLT-4 6.78 µM | COLO 205 23.1 µM | KM12 27.9 µM | OVCAR-5 31.4 µM | HOP-62 36.6 µM | SK-MEL-5 24.7 µM | K562 10.1 µM | IGROV-1 20 µM | SK-MEL-2 23.2 µM | NCI-H226 23.6 µM | SF-539 23.9 µM | NCI-H23 24.7 µM

O=C(NC1C2CC3CC(C2)CC1C3)/C(Cl)=C1/Sc2ccccc2NC1=O (centres undefined)
inactive: SNB-75 97.9 µM | UACC-257 > 100 µM | M14 > 100 µM | SNB-19 > 100 µM | HCT-116 > 83.6 µM | MOLT-4 16.7 µM | COLO 205 > 100 µM | KM12 > 62.8 µM | OVCAR-5 > 100 µM | HOP-62 > 100 µM | SK-MEL-5 > 100 µM | K562 29.6 µM | IGROV-1 > 100 µM | LOX IMVI 99.3 µM | NCI-H226 > 100 µM | SF-539 > 100 µM | NCI-H23 > 100 µM

OC1OCC(COc2cc(Cl)c(Cl)cc2Cl)OC1O (centres undefined)
inactive: SNB-75 26.2 µM | UACC-257 35.9 µM | M14 30.1 µM | SNB-19 33 µM | HCT-116 18.9 µM | MOLT-4 32.2 µM | COLO 205 52.1 µM | KM12 35.6 µM | OVCAR-5 > 100 µM | HOP-62 76.7 µM | SK-MEL-5 39.5 µM | K562 33.6 µM | IGROV-1 80.9 µM | NCI-H226 41.5 µM | SF-539 39.4 µM | NCI-H23 59.2 µM

COc1cc(/C=C/c2ccc(OC)c(O)c2)cc(OC)c1
inactive: UACC-257 5.86 µM | M14 3.08 µM | SNB-19 3.87 µM | HCT-116 3.4 µM | MOLT-4 3.35 µM | COLO 205 26.5 µM | KM12 12.4 µM | OVCAR-5 31.8 µM | HOP-62 4.2 µM | SK-MEL-5 4.18 µM | K562 2.43 µM | IGROV-1 18.7 µM | LOX IMVI 12.2 µM | SK-MEL-2 6.41 µM | NCI-H226 3.45 µM | SF-539 2.39 µM | NCI-H23 3.44 µM
